Data reported in article PMC6220849, “Mechanistic and structural studies of KDM‐catalysed demethylation of histone 1 isotype 4 at lysine 26” (Febs Letters, 2018).
Square brackets hold non-standard residues; d marks the D form. Ends that are not written are not given here. Lys(Me3) = C[N+](C)(C)CCCC[C@H](N)C(=O)O

Key:
Type in all cases: biochemical, human
Design in all cases: key: 🟢: Indicates that clear demethylation activity was observed; 🟡: Indicates that low level demethylation activity was observed (<10% conversion after 1 h); 🔴: Indicates no activity under the stated conditions (1 μM KDM, 10 μM peptide); 🟡*: *Indicates demethylation activity was only observed with 5 μM KDM
[1] = system: KDM4B (KDM4B1–359); assay: MALDI-TOF MS demethylation activity assay, KDM4B; settings: peptide as substrate, 1 μM KDM, 10 μM peptide, 50 mM HEPES pH 7.5, Fe(II) 10 μM, ascorbate 100 μM, 2OG 200 μM, 1 h at 37 °C
Protocol: (§1) Recombinant proteins (1 μM) were incubated with peptides (10 μM, sequences are given in Table S1) in 50 mM HEPES, pH 7.5 with addition of Fe(II) ammonium sulfate (10 μM), sodium ascorbate (100 μM) and 2‐oxoglutaric acid (200 μM). Reactions with KDM3A and KDM7A also contained 1 mM tris(2‐carboxyethyl)phosphine hydrochloride. No enzyme reactions were included as negative controls. Reactions were incubated for 1 h at 37 °C before being quenched with 1 : 1 (v/v) methanol. Analysis was carried out by MALDI‐TOF MS (Bruker, Billerica, MA, USA), with demethylation observed as mass shifts of 14 Da.
Given the activity observed with KDM4E and KDM7A, we decided to investigate the intra‐subfamily conservation of this demethylation activity. The demethylation activity of the other subfamily members (KDM4A‐D and KDM7B) was therefore screened. […] Note that as with H3K9, demethylation of the monomethylated H1.4K26 peptide was only observed with KDM4E, under the stated conditions 24.

[2] = system: KDM2A (KDM2A1–557); assay: MALDI-TOF MS demethylation activity assay, KDM2A; settings: peptide as substrate, 1 μM KDM, 10 μM peptide, 50 mM HEPES pH 7.5, Fe(II) 10 μM, ascorbate 100 μM, 2OG 200 μM, 1 h at 37 °C
Protocol: as §1
(§2) The propensity of human JmjC KDMs to catalyse demethylation at H1.4K26 was investigated using recombinant forms of the catalytic domains of representatives of each human JmjC KDM subfamily (KDM2‐7) and fragment peptides (Table S1) 37. Three peptides with identical sequences, corresponding to residues 18–32 of histone H1.4 (H2N‐[…]‐CONH2), but containing either a N ^ε‐tri‐, di‐ or monomethyllysine at K26 were synthesised (Fig. 1B and Table S1). Activity assays monitoring JmjC KDM‐catalysed demethylation of the peptides were then carried out; samples were prepared containing each peptide, 2‐oxoglutarate (2OG), ferrous iron, ascorbate and individual representatives from each JmjC KDM subfamily (KDM2A 38, KDM3A 21, KDM4E 22, KDM5C 39, 40, KDM6B 41, KDM7A 42).

[3] = system: KDM3A (KDM3A515–1317); assay: MALDI-TOF MS demethylation activity assay, KDM3A; settings: peptide as substrate, 1 μM KDM, 10 μM peptide, 50 mM HEPES pH 7.5, Fe(II) 10 μM, ascorbate 100 μM, 2OG 200 μM, 1 mM TCEP, 1 h at 37 °C
Protocol: as §1, §2

[4] = system: KDM4E (KDM4E1–337); assay: MALDI-TOF MS demethylation activity assay, KDM4E; settings: peptide as substrate, 1 μM KDM, 10 μM peptide, 50 mM HEPES pH 7.5, Fe(II) 10 μM, ascorbate 100 μM, 2OG 200 μM, 1 h at 37 °C
Protocol: as §1, §2

Substance: TPVKKKAR[Lys(Me3)]SAGAAK [H1.4(18–32)K26me3, peptide of residues 18–32 of histone H1.4 with N ε-trimethyllysine at K26]
- demethylation activity on methylated H1.4 peptide [1]: 🟢
- demethylation activity on methylated H1.4 peptide [2]: 🔴
- demethylation activity on methylated H1.4 peptide [3]: 🔴
- demethylation activity on methylated H1.4 peptide [4]: 🟢
